Patent US4927842A, “2,3,4,9-tetrahydro-1H-carbazole acetic acid derivatives, composition and use as anti-inflammatories” (American Home Products Corporation, priority 1989, dated 1990)

These molecules were tested on rats (assay: Preventative Adjuvant Edema (acute anti-inflammatory effect in rats)). Settings: 25 mg/kg, p.o.; given immediately before, 24 and 48 hours after Freund's complete adjuvant; hind paw edema volume day 0 to day 3.
Format: in vivo, Male Sprague Dawley rats
Experimental: This test is a primary screen for anti-inflammatory drugs.
Male Sprague Dawley rats (180-200 g) are used. The animals have free access to water but food is withdrawn 18 hours before testing.
Freund's complete adjuvant is prepared by suspending 5 mg killed and dried Mycobacterium butyricum (Difco) in 1 mL mineral oil. The test compounds are dissolved in distilled water or suspended in 0.5% Tween 80 in distilled water according to their solubility. For primary screening all drugs are administered by gastric lavage at the arbitrary dosage of 25 mg/kg, p.o. in a volume of 0.5 mL/100 g body weight to groups of 10 animals.
The method is essentially that described by Wax et al, J. Pharmacol. Exp. Ther., 192, 166-171 (1975). Groups of rats are injected intradermally in the left hand paw with 0.1 mL of Freund's complete adjuvant. The test compound or vehicle is administered immediately before the adjuvant, 24 hours and 48 hours after the adjuvant (day 0, 1 and 2). The injected hind paw volume is measured before the injection of adjuvant and 24 hours after the last drug administration (day 3) by means of a plethysmometer (Buxco Electronics Inc.). The difference between the hind paw volume on day 0 and day 3 represents the edema volume. Etodolac (25 mg/kg, p.o.) is included as a positive control.
The mean edema volume (expressed as mL±SEM) is calculated for each group and the percentage protection conferred by the drug is calculated: [formula] where c is the mean edema volume for the untreated controls and t is the mean edema volume for the drug treated group.

Point of comparison: `CC[C@]1(CC(=O)O)CC[C@@H](CC#N)c2c1[nH]c1c(C)cccc21` (relative stereo) [Example 4, cis-4-(Cyanomethyl)-1-ethyl-2,3,4,9-tetrahydro-8-methyl-1H-carbazole-1-acetic Acid], “% Inhibition” value 52%. Against it:
- CC[C@]1(CC(=O)O)CC[C@@H](CC=NOC)c2c1[nH]c1c(C)cccc21 (relative stereo) [Example 2, cis-1-Ethyl-2,3,4,9-tetrahydro-4-[2-(methoxyimino)ethyl]-8-methyl-1H-carbazole-1-acetic Acid] — lower, 45%
- CC[C@]1(CC(=O)O)CC[C@@H](CC(C)=O)c2c1[nH]c1c(C)cccc21 (relative stereo) [Example 3, cis-1-Ethyl-2,3,4,9-tetrahydro-8-methyl-4-(2-oxopropyl)-1H-carbazole-1-acetic Acid] — the same, 52%
- cis-1-Ethyl-2,3,4,9-tetrahydro-4-[2-(hydroxyimino)ethyl]-8-methyl-1H-carbazole-1-acetic Acid [Example 1] — higher, 59%
